Reference: PMC3945637 (Frontiers in Pharmacology, 2014)
Peptide text beside a SMILES is read from it.

Assays:
[1] = target: T1, rabbit B2R-green fluorescent protein (B2R-GFP) (Oryctolagus cuniculus, UniProt Q28642); assay: [3H]BK binding competition to B2R-GFP stably expressed in intact HEK 293 cells; conditions: for [3H]BK binding to B2R-GFP log(IC50) ± SE: log of IC50, 3 nM [3H]BK, 0 °C, with peptidase inhibitors incl. captopril, HEK 293 cells; for IC50 for B2R-GFP relative to unlabeled BK (fold greater IC50 / lower affinity): [3H]BK binding competition, vs BK
T1 construct: expressed in transfected cells
T1 sequence (Q28642 1-367): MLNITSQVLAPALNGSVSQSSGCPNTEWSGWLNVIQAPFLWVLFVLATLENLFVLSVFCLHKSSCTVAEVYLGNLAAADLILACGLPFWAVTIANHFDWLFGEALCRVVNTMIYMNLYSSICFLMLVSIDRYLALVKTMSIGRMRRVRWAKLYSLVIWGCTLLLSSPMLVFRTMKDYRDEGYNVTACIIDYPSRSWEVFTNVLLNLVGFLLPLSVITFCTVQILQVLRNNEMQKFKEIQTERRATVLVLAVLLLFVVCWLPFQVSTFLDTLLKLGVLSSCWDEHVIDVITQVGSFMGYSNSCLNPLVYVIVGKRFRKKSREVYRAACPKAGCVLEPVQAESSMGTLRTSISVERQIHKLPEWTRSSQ
Experimental: (§1) Affinity for the B2R was evaluated using a radioligand binding competition assay performed at 0 °C in the presence of peptidase inhibitors that included captopril ([Houle et al., 2000]). […] Other HEK 293a cells that transiently expressed human recombinant ACE were used to perform a [^3H]enalaprilat binding assay as described ([Koumbadinga et al., 2010]; the peACE vector was a gift from Prof. P. Corvol, Paris, France).
(§2) Results are presented as mean ± SEM. Radioligand binding data were fitted by non-linear regression to a one-site competition equation using a least-square method (Prism 4.0, GraphPad Software Inc., San Diego, CA, USA) and IC50 values calculated from this procedure. The same computer program was used to draw concentration-effect curves (least square fitting of sigmoidal dose-response equation with variable slope) and to derive contractile EC50 values. The qualitative effect of treatments on the distribution of the B2R-GFP fluorescent protein (either located at the plasma membrane or submitted to internalization) was evaluated for each HEK 293 cell in large microphotographic records and proportion of affected cells were compared using the χ^2 statistics to determine drug effect on the subcellular receptor distribution.

human B1R (B1R-FLAG) = target: T2, human B1R (B1R-FLAG) (Homo sapiens, UniProt P46663); assay: [3H]Lys-des-Arg9-BK binding competition to B1R-FLAG transiently expressed in HEK 293a cells; conditions: for [3H]Lys-des-Arg9-BK binding to B1R-FLAG log(IC50) ± SE: log of IC50, 1 nM [3H]Lys-des-Arg9-BK, HEK 293a cells
T2 construct: FLAG; expressed in transfected cells
T2 sequence (P46663 1-353): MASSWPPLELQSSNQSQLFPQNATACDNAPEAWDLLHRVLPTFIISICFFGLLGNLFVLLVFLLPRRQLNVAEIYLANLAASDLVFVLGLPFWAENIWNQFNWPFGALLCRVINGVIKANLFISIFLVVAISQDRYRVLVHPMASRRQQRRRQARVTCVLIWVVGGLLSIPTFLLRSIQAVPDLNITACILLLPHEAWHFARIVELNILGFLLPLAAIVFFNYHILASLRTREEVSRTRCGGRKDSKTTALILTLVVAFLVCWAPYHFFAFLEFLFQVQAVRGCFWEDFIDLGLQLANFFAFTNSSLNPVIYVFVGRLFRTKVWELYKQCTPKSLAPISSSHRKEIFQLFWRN

[2] = target: T3, BK B2R (human umbilical vein rings) (Homo sapiens, UniProt P30411); assay: Human isolated umbilical vein contractility assay; format: cell-based; conditions: for fold less potent than BK as contractile agent: control conditions, vs BK; for +Peptidase inhibitor log(EC50) ± SE / Control (DMSO vehicle) log(EC50) ± SE: log of contractile EC50; for Control (DMSO vehicle) log(EC50) ± SE: no peptidase inhibitor, paired tissues
T3 construct: from tissue; host or cells: human umbilical vein rings
T3 sequence (P30411 1-391): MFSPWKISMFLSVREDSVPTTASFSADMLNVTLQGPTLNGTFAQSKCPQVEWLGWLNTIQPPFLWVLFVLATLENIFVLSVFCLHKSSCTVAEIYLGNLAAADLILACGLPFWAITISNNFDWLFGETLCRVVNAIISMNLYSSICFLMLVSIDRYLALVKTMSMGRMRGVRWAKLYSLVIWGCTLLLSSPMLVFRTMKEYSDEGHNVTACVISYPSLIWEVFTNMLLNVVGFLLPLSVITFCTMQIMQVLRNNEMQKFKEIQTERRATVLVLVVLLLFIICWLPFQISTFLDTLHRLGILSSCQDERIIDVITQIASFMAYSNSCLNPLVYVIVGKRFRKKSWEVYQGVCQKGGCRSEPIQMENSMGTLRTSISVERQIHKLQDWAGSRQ
Description: The institutional research ethics board (CHU de Québec) approved the anonymous use of human umbilical cord segments obtained after elective cesarean section deliveries. Informed consent was obtained from mothers. […] Tissues were used only once and discarded; controls curves were obtained from other vascular rings from the same vein.
as §2

human recombinant ACE [3] = target: T4, human recombinant ACE (Homo sapiens, UniProt P12821); assay: [3H]enalaprilat binding competition to recombinant ACE transiently expressed in HEK 293a cells; design: expressed in transfected cells; host or cells: HEK 293a cells, transient expression (peACE vector, gift from Prof. P. Corvol); conditions: for fold lesser affinity vs. BK for ACE: [3H]enalaprilat binding competition; for [3H]enalaprilat binding to ACE log(IC50) ± SE: log of IC50, 2 nM [3H]enalaprilat, HEK 293a cells
T4 sequence (P12821 30-1306): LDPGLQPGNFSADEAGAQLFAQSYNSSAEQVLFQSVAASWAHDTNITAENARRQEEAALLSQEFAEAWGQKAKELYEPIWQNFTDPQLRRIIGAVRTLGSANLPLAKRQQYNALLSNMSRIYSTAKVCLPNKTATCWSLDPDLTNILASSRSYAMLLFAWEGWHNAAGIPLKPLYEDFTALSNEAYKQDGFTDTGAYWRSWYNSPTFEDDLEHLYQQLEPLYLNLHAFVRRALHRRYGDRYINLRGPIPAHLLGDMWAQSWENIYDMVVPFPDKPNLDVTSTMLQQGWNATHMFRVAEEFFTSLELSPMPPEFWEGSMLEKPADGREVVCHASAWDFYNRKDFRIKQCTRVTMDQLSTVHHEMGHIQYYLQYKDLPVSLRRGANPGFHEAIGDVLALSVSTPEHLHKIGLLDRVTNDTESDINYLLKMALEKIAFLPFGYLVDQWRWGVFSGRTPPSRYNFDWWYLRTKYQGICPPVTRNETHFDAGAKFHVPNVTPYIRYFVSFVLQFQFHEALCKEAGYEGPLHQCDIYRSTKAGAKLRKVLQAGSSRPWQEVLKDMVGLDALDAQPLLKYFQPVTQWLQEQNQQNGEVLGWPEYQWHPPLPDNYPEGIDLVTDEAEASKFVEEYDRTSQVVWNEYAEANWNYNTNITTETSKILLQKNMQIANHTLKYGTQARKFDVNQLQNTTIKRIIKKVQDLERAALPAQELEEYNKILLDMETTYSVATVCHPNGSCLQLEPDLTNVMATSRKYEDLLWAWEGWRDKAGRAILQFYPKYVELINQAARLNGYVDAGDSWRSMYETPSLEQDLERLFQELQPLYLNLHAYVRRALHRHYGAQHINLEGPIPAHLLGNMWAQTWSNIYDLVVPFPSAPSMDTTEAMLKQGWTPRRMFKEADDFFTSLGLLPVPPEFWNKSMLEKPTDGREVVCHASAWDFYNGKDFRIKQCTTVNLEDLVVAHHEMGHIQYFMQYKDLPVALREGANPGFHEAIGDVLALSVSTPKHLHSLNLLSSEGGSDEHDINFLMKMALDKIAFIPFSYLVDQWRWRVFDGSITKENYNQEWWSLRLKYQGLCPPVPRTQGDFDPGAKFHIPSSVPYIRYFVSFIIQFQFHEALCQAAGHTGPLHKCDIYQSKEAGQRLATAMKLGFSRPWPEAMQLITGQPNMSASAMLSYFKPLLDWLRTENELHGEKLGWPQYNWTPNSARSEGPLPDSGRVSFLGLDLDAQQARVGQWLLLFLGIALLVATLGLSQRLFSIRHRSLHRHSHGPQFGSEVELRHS
Experimental: as §1, §2

[4] = target: endogenous B2 receptor of the human umbilical vein (human (endogenous in umbilical vein)) (UniProt P30411)
[5] = target: rabbit B2R-green fluorescent protein (rabbit) (UniProt Q28642); assay: radioligand binding; competition of 3 nM [^3H]BK binding to adherent intact HEK 293 cells stably expressing rabbit B2R-GFP by unlabeled peptides; 0 °C; peptidase inhibitors that included captopril; one-site competition fit
[6] = target: human B1R (B1R-FLAG vector) (human) (UniProt P46663); assay: radioligand binding; competition of 1 nM [^3H]Lys-des-Arg^9-BK binding to HEK 293a cells transiently expressing human B1R (B1R-FLAG vector); one-site competition fit
human recombinant ACE [7] = target: T4, human recombinant ACE; assay: radioligand binding; competition of 2 nM [^3H]enalaprilat binding to HEK 293a cells transiently expressing human recombinant ACE by BK and analogs; one-site competition fit
[8] = enalaprilat 1 μM, 30 min before agonist

Row | [3H]BK binding to B2R-GFP log(IC50) ± SE [1] | [3H]Lys-des-Arg9-BK binding to B1R-FLAG log(IC50) ± SE (human B1R (B1R-FLAG)) | fold less potent than BK as contractile agent [2] [fold] | +Peptidase inhibitor log(EC50) ± SE [2, 8] | Control (DMSO vehicle) log(EC50) ± SE [2] | fold lesser affinity vs. BK for ACE (human recombinant ACE [3]) [fold] | [3H]enalaprilat binding to ACE log(IC50) ± SE (human recombinant ACE [3]) | log(IC50) [5] [log M] | Compound | IC50 for B2R-GFP relative to unlabeled BK (fold greater IC50 / lower affinity) [1] [fold] | also measured
1 | -5.11 ± 0.16 | >-5 | 14.1 | -5.55 ± 0.06 | -6.59 ± 0.07 | 2.23 | -5.46 ± 0.11 |  | C[C@H](NC(=O)[C@H](CCCNC(=N)N)NC(=O)[C@H](Cc1ccccc1)NC(=O)[C@@H]1CCCN1C(=O)[C@H](CO)NC(=O)[C@H](Cc1ccccc1)NC(=O)CNC(=O)[C@@H]1CCCN1C(=O)[C@@H]1CCCN1C(=O)[C@@H](N)CCCNC(=N)N)C(=O)N1CCC[C@H]1C(=O)O [BK-Ala-Pro] (H-RPPGFSPFRAP-OH; N-terminus and C-terminus assumed) |  | 
2 | -5.79 ± 0.13 | >-5 | 6.9 | -6.32 ± 0.06 | -6.90 ± 0.09 | 3.94 | -5.21 ± 0.15 |  | N=C(N)NCCC[C@H](NC(=O)[C@H](Cc1ccccc1)NC(=O)[C@@H]1CCCN1C(=O)[C@H](CO)NC(=O)[C@H](Cc1ccccc1)NC(=O)CNC(=O)[C@@H]1CCCN1C(=O)[C@@H]1CCCN1C(=O)[C@@H](N)CCCNC(=N)N)C(=O)N[C@@H](CO)C(=O)N[C@@H](Cc1ccc(O)cc1)C(=O)O [BK-Ser-Tyr] (H-RPPGFSPFRSY-OH; N-terminus and C-terminus assumed) | 102 | decrease of apparent contractile potency by ACE blockade ([2]; enalaprilat 1 μM vs paired control tissues): 3.9 fold
3 |  |  |  |  |  |  |  | -7.61 | Arg-Pro-BK (peptide) |  | log(EC50) of contraction of the human isolated umbilical vein, control (DMSO vehicle), Figure 5B [4]: -7.39 log M; log(EC50) of contraction of the human isolated umbilical vein, with NVP-DPP728 1 μM, Figure 5B [4]: -7.29 log M; log(EC50) of contraction of the human isolated umbilical vein, with amastatin 3 μM, Figure 5B [4]: -7.35 log M
4 |  |  |  |  |  |  |  |  | NC(N)=NCCC[C@H](NC(=O)[C@H](Cc1ccccc1)NC(=O)[C@@H]1CCCN1C(=O)[C@H](CO)NC(=O)[C@H](Cc1ccccc1)NC(=O)CNC(=O)[C@@H]1CCCN1C(=O)[C@@H]1CCCN1C(=O)[C@@H](N)CCCN=C(N)N)C(=O)O [BK, Bradykinin, reference compound] (H-RPPGFSPFR-OH) |  | IC50 [1]: 0.0158 µM; IC50 (human B1R (B1R-FLAG)): > 10 µM; IC50 (human recombinant ACE [3]): 1.55 µM
5 |  |  |  |  |  |  |  | -5.11 | BK-Ala-Pro (peptide) |  | log(EC50) of contraction of the human isolated umbilical vein, with ACE blocked by enalaprilat 1 μM, Figure 3D [4]: -5.55 log M; log(IC50) [6]: > -5 log M; log(IC50) (human recombinant ACE [7]): -5.46 log M

Row | Compound | [3H]BK binding to B2R-GFP log(IC50) ± SE [1] | [3H]Lys-des-Arg9-BK binding to B1R-FLAG log(IC50) ± SE (human B1R (B1R-FLAG)) | fold less potent than BK as contractile agent [2] [fold] | +Peptidase inhibitor log(EC50) ± SE [2, 8] | Control (DMSO vehicle) log(EC50) ± SE [2] | fold lesser affinity vs. BK for ACE (human recombinant ACE [3]) [fold] | [3H]enalaprilat binding to ACE log(IC50) ± SE (human recombinant ACE [3]) | log(IC50) [5] [log M] | IC50 for B2R-GFP relative to unlabeled BK (fold greater IC50 / lower affinity) [1] [fold] | also measured
6 | N=C(N)NCCC[C@H](NC(=O)[C@H](Cc1ccccc1)NC(=O)[C@@H]1CCCN1C(=O)[C@H](CO)NC(=O)[C@H](Cc1ccccc1)NC(=O)CNC(=O)[C@@H]1CCCN1C(=O)[C@@H]1CCCN1C(=O)[C@H](CCCNC(=N)N)NC(=O)[C@@H]1CCCN1C(=O)[C@@H](N)CCCNC(=N)N)C(=O)O [Arg-Pro-BK] (H-RPRPPGFSPFR-OH; N-terminus and C-terminus assumed) | -7.61 ± 0.09 |  |  |  | -7.39 ± 0.06 |  |  |  | 1.6 | effect of DPP-IV inhibitor NVP-DPP728 on apparent contractile potency (in words) ([2]; NVP-DPP728 1 μM): did not show a loss of apparent potency; effect of aminopeptidase inhibitor amastatin on contractile effect (in words) ([2]; amastatin 3 μM): failed to modify; +Peptidase inhibitor log(EC50) ± SE ([2]; NVP-DPP728 1 μM): -7.29 ± 0.03; +Peptidase inhibitor log(EC50) ± SE ([2]; amastatin 3 μM): -7.35 ± 0.07
